“Also recorded” adds a separate entry of the source. Square brackets hold non-standard residues; d marks the D form. Ends that are not written are not given here. βAla = NCCC(=O)O
What was measured:
cerebellar granule cells = assay: Survival of cerebellar microexplants under glutamate and 3-NP toxicity; assay type: cell-based, Wistar rats; settings: for block of NNZ-4921 neuronal survival-promoting activity: glutamate and 3-NP toxicity, 48 hours, eotaxin-3 10 and 100 nM, AMD3100 300 nM, co-administered with NNZ-4921
Protocol: Glass coverslips were obtained from New Zealand BioLabs, size 18 mm×18 mm. The coverslips were placed in a 150 mm Petri dish, at 8 cover slips per dish. Both sides of the coverslips were soaked and washed in absolute ethanol. The ethanol was discarded, and autoclaved MilliQ® was added to rinse both sides of coverslips. The water was then discarded, and the coverslips were air dried under the laminar flow.
Poly-D-lysine (PDL) was obtained from Sigma (P7280, lyophilized powder, γ-irradiated, average mol wt 30,000-70,000, cell culture tested). This was diluted with autoclaved PBS to make a stock solution of 1 mg/ml. The stock solution was divided into aliquots of 500 μl/tube and stored at −20° C.
For experiments, the stock solution of PDL was diluted with PBS 1:10 to make working solution of with a final concentration of 100 μg/ml. Approximately 100 μl of the PDL working solution was added to the coverslips and this was incubated at 34° C. for 2 hours (minimum) to overnight.
Next, more than 10 ml autoclaved MilliQ® was added into each Petri dish and the PDL-coated coverslips were rinsed. The coverslips were then transferred to 6 well culture plates. After air drying, the plates were wrapped in foil and stored at 4° C. until use. Storage was possible for up to 2 weeks.
Rat pups were used for this experiment (Wistar rats), either P3/4 or P7/8.
For extraction of P3/4 cerebellar cortices, 0.5 ml of ice-cold PBS/0.65% D(+)-glucose buffer was placed into a Petri dish and the tissue was placed into this solution. For extraction of P7/8 cerebellar cortices, 1.0 ml of ice-cold PBS/0.65% D(+)-glucose buffer was placed into a Petri dish and the tissue was placed into this solution.
The laminated cerebellar cortex was removed surgically and stored immediately in ice-cold PBS/0.65% D(+)-glucose buffer using the amounts as noted above. The cortex was then transferred to a Petri dish, and the meninges were removed from the cerebellar. The tissue was sliced by scissors, and passed once (P3/P4 pups) or twice (P7/P8 pups) through a 23-gauge sized needle attached to a 1 cc syringe to obtain uniformly sized microexplants. This was set aside in a Petri dish.
Next, the tissue was transferred into a 15 ml Falcon tube and centrifuged for 2 minutes at 350 rpm, at 4° C. The PBS/Glu(+) buffer was carefully discarded using a pipette. The pellet was resuspended in cold Neurobasal® medium (Invitrogen), at 1 ml per pup. This was centrifuged for 2 minutes at 350 rpm (60XG), at 4° C.
The medium was discarded and the pellet was resuspended in warm Neurobasal® medium, at 0.5 ml per P3/4 pup and 1.5 ml per P7/8 pup. This was then seeded on PDL-coated cover slips in 6 well plates at a volume of 40-45 μl per coverslip.
The coverslips were incubated at 34° C., in 5% CO2, with 100% humidity for 45 minutes to 1.5 hours to allow adherence. Then, 1 ml of Neurobasal® medium was added per well and the microexplants were checked under a microscope for adherence.
The toxins 3-nitropropionic acid and glutamate were prepared at 100× concentrations. For 50 mM 3-nitropropionic acid (Sigma), the stock solution was titrated with NaOH to a pH value of 7-7.2. For 50 mM L-glutamate, this was dissolved under heat (hot water).
As a negative control, 10 μl of 3-nitropropionic acid and 10 μl of glutamate was administered (4 wells). As a positive control, 20 μl of PBS was administered to normoxic microexplants without any toxins (4 wells). […]

neuronal stem cells = settings: cited from earlier work
human W9-hESCs = assay type: cell-based; settings: 300 nM AMD3100, normoxic and OGD conditions
Protocol: Experiments with human embryonic stem cells (hESC) were carried out in accordance with the guidelines and regulations of the NHMRC and with the approval of the Austin Health Human Research Ethics Committee (Approval number H2008/03194), and University of Melbourne Human Research Ethics Committee (Approval number 0605017). H9 (WA-09, WiCell) cell lines were grown as previously described (Dottori & Pera, 2007).
Briefly, hESC were cultured on mitomycin-C treated mouse embryonic fibroblasts (MEFs) in hESC medium consisting of high-glucose Dulbecco's Modified Eagle Medium (DMEM) without sodium pyruvate, supplemented with 1% insulin/transferrin/selenium, 0.1 mM β-mercaptoethanol, 1% nonessential amino acids (NEAA), 2 mM glutamine, 25 U/ml penicillin, 25 μg/ml streptomycin (all from Invitrogen) and 20% fetal calf serum (FCS) (Hyclone).
Alternatively, hESC were cultured on mitomycin-C treated human foreskin fibroblasts (HFF; ATCC, CRL-2097) in KSR media consisting of DMEM/nutrient mixture F-12, supplemented with 0.1 mM […], 1% nonessential amino acids (NEAA), 2 mM glutamine, 25 U/ml penicillin, 25 μg/ml streptomycin and 20% knockout serum replacement (all from Invitrogen).
All cells were cultured at 37° C. in 5% CO2 with 100% humidity. Colonies were mechanically dissected every 7 days (subcultivated or passaged) and transferred to freshly prepared MEFs or HFFs. Media was changed every second day.
Neuronal differentiation was achieved using the noggin induction method described for mouse neurospheres as adapted by Dottori for human neurospheres (Dottori & Pera, 2007). The colonies were maintained at 37° C., with 5% CO2 in hESC medium supplemented with 500 ng/ml of Noggin for 14 days while replacing Noggin every other day.
At this point, the cells were washed with PBS and the colonies were again mechanically dissociated, but this time the central (differentiated) part of the colony was also cut into smaller pieces using a 26-gauge needle. The pieces were transferred to individual wells in a low adherent 96-well plate containing Neurobasal®A (NBM) (Invitrogen) supplemented with 1× X B-27® (Invitrogen) and 1× N-2 (Invitrogen) 20 ng/ml human recombinant EGF and 20 ng/ml human recombinant bFGF (Pharmacia). Media was changed every 2 to 3 days to allow neurosphere formation over 2 weeks.
In order to facilitate neuronal differentiation, neurospheres were again separated into smaller pieces under a dissection microscope, and three to four pieces were transferred to each well of a 96-well plate. Prior to this transfer, the plate was pre-coated with poly-D-lysine (10 μg/ml in PBS), washed in PBS, recoated with mouse laminin (5 μg/ml in PBS), and washed again. The cells were then grown for 11 days (with media changed every two days) in NBM lacking growth factors prior to induction of injury and assessment of hypothermia.
On the day of experiments, the medium was changed to NBM+N2 containing a B27 preparation lacking the usual antioxidants (Invitrogen; 10889-038) to eliminate their confounding effects (NBM-AO).
To maintain isoosmotic pressure conditions, 25 mM 2-deoxy-D-glucose was added to NBM-AO medium and equilibrated for 30 minutes at room temperature before the initial media change as described above. […] Culture supernatant was removed after this 4 hour period and stored at 4° C. until analysed for lactate dehydrogenase (LDH) activity.
The media was replaced with fresh NBM-AO and the cells were incubated for a further 20 hours containing drug, before again measuring LDH. Oxidative stress was induced by adding 50 μM fresh H2O2 (Sigma, H1009) to the growth factor negative NBM on initiation of the experiment with continued culture for 4 hours when LDH was measured and NBM-AO without H2O2 was returned to the culture which was maintained for a further 20 hours before again measuring LDH.

[1] = target: T1, homodimeric CXCR4 receptor (Homo sapiens, UniProt P61073); assay: 125I-SDF-1 displacement binding study (CEREP); settings: recombinant homodimeric CXCR4 expressing HEK293 cells; unlabelled peptide in competition
T1 construct: host or cells: HEK293
T1 sequence (P61073 whole entry): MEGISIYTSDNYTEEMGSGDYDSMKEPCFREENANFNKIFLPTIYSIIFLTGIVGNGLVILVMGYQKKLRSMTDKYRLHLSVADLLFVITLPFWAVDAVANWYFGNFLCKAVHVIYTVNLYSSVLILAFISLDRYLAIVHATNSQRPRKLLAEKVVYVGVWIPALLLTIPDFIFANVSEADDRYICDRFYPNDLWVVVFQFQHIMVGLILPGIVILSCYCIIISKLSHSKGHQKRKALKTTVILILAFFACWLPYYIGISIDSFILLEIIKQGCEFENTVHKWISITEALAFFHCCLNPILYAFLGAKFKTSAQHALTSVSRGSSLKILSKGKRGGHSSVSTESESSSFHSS
Protocol: This was determined by radioactive ^125I-SDF-1 displacement studies using CXCR4 homodimeric receptors and unlabelled NNZ-4921 and NRP2945 in competition.

[2] = target: T2, homodimeric CXCR4 receptor (recombinant, expressed in HEK293 cells) (UniProt P61073 1-352, limits assumed); assay: 125I-SDF-1 displacement on HEK293 cells expressing recombinant homodimeric CXCR4 (CEREP)
T2 construct: whole, on cells; also called CXCR4 homodimeric receptors; homodimeric CXCR4 receptor complex
T2 sequence (P61073 whole entry): as above

GRRAAPGR-β-Ala-GG (GRRAAPGR[βAla]GG) [NRP2983, synthetic 11-mer peptidomimetic closely related to NRP2945]
promotion of survival of cultivated cerebellar cells (cerebellar granule cells; 1fM NRP2983, oxidatively stressed cerebellar microexplants): 70%

SDF-1: natural ligand for the CXCR4 receptor
EC50 values for chemoattraction (neuronal stem cells; SDF-1): lower nanomolar range | minimal concentration required to chemoattract neuronal stem cells (neuronal stem cells; Xu and Heilshorn, 2012): 9 nM

c1cc(CN2CCCNCCNCCCNCC2)ccc1CN1CCCNCCNCCCNCC1 [AMD3100, reference compound]
toxicity on W9-hESCs (human W9-hESCs): did not show any toxicity | block of NNZ-4921 neuronal survival-promoting activity (cerebellar granule cells): completely block

eotaxin-3: human recombinant eotaxin-3 (Pharmaco), ligand of the CCR3 receptor, partial agonist
block of NNZ-4921 neuronal survival-promoting activity (cerebellar granule cells): abrogation of the neuroprotective effect; also recorded: completely blocked | effect of eotaxin-3 alone on neuronal survival (cerebellar granule cells; without NNZ-4921, normoxic or oxidative/excitotoxic stress conditions): no toxic effect; also recorded: no effect on the overall neuronal survival rate

GRRAAPGRAGG [NNZ-4921]
displacement of 125I-SDF-1 from homodimeric CXCR4 receptor [1]: not able to displace the radioactive ligand SDF-1 | activity of NNZ-4921 in reducing cell death in presence of eotaxin-3 in combination with AMD3100 (cerebellar granule cells; 10 fM or 100 fM NNZ-4921): completely blocked

GRRAAPGRAGG [NNZ-4921]
binding result [2]: no binding

From patent publication US20160031937A1, “NEURAL REGENERATION PEPTIDES AND USES THEREFOR” (CURONZ HOLDINGS COMPANY LIMITED, priority 2013, published 2016)
